From PubChem BioAssay (NCI)
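1) Cells in 96-well plates. 2) Compound, 48 h, 5 concentrations. 3) Linear interpolation between surrounding doses. 4) Unreached endpoint = highest concentration. TGI denotes the concentration required for complete inhibition of growth.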

Key:
Experiment in all cases: DTP human tumour cell line panel, 48 h
786-0 renal = tested on: 786-0 renal
A549 NSCLC = tested on: A549 NSCLC
ACHN renal = tested on: ACHN renal
BT-549 breast = tested on: BT-549 breast
CAKI-1 renal = tested on: CAKI-1 renal
CCRF-CEM leukemia = tested on: CCRF-CEM leukemia
COLO 205 colon = tested on: COLO 205 colon
DU-145 prostate = tested on: DU-145 prostate
EKVX NSCLC = tested on: EKVX NSCLC
HCT-116 colon = tested on: HCT-116 colon
HCT-15 colon = tested on: HCT-15 colon
HL-60(TB) leukemia = tested on: HL-60(TB) leukemia
HOP-62 NSCLC = tested on: HOP-62 NSCLC
HS 578T breast = tested on: HS 578T breast
HT29 colon = tested on: HT29 colon
IGROV1 ovarian = tested on: IGROV1 ovarian
K-562 leukemia = tested on: K-562 leukemia
KM12 colon = tested on: KM12 colon
LOX IMVI melanoma = tested on: LOX IMVI melanoma
M14 melanoma = tested on: M14 melanoma
MALME-3M melanoma = tested on: MALME-3M melanoma
MCF7 breast = tested on: MCF7 breast
MDA-MB-231 breast = tested on: MDA-MB-231 breast
MDA-MB-435 = tested on: MDA-MB-435
MDA-N = tested on: MDA-N
MOLT-4 leukemia = tested on: MOLT-4 leukemia
NCI-H226 lung = tested on: NCI-H226 lung
NCI-H23 lung = tested on: NCI-H23 lung
NCI-H460 lung = tested on: NCI-H460 lung
NCI-H522 lung = tested on: NCI-H522 lung
NCI/ADR-RES ovarian = tested on: NCI/ADR-RES ovarian
OVCAR-3 ovarian = tested on: OVCAR-3 ovarian
OVCAR-4 ovarian = tested on: OVCAR-4 ovarian
OVCAR-5 ovarian = tested on: OVCAR-5 ovarian
OVCAR-8 ovarian = tested on: OVCAR-8 ovarian
PC-3 prostate = tested on: PC-3 prostate
RPMI-8226 leukemia = tested on: RPMI-8226 leukemia
RXF 393 renal = tested on: RXF 393 renal
SF-268 CNS = tested on: SF-268 CNS
SF-295 CNS = tested on: SF-295 CNS
SK-MEL-28 melanoma = tested on: SK-MEL-28 melanoma
SK-MEL-5 melanoma = tested on: SK-MEL-5 melanoma
SK-OV-3 ovarian = tested on: SK-OV-3 ovarian
SN12C renal = tested on: SN12C renal
SNB-19 CNS = tested on: SNB-19 CNS
SNB-75 CNS = tested on: SNB-75 CNS
SR leukemia = tested on: SR leukemia
T-47D breast = tested on: T-47D breast
TK-10 renal = tested on: TK-10 renal
U251 CNS = tested on: U251 CNS
UACC-257 melanoma = tested on: UACC-257 melanoma
UACC-62 melanoma = tested on: UACC-62 melanoma
UO-31 renal = tested on: UO-31 renal
HCC-2998 colon = tested on: HCC-2998 colon
HOP-92 NSCLC = tested on: HOP-92 NSCLC
SF-539 CNS = tested on: SF-539 CNS
SW-620 colon = tested on: SW-620 colon

Measured: TGI

S=C1CSc2c(cnc3ccccc23)N1
not listed: HCC-2998 colon | HOP-92 NSCLC | SF-539 CNS | SW-620 colon
> 100 µM: all other assays above

Cc1nn(-c2ccccc2)c2c1N=C(C(=O)O)CC(c1ccccc1)=N2
not listed: CCRF-CEM leukemia | EKVX NSCLC | NCI-H226 lung | NCI-H460 lung | OVCAR-5 ovarian | RXF 393 renal | UO-31 renal
> 10 µM: all other assays above
